Paper PMC3806773, “Discovery of P1736, a Novel Antidiabetic Compound That Improves Peripheral Insulin Sensitivity in Mice Models” (PLoS ONE, 2013)

Key:
[1] = biological target: T1, human 11<beta>-Hydroxysteroid dehydrogenase-1 (Homo sapiens, UniProt P28845); test: 11beta-HSD1 cell based inhibition assay; conditions: concentration not given
T1 construct: University of Edinburgh, UK (outsourced)
Description: Transactivation activity against human PPARγ and PPARα receptors was determined using luciferase reporter gene assays in the Laboratory of CloneGen Biotechnology, Michigan, USA. Activities of protein tyrosine phosphatase-1b (PTP-1B) and adenosine mono phosphate activated kinase (AMPK) were evaluated at MDS Pharma, Korea. Evaluation of activity against human 11-Hydroxysteroid dehydrogenase-1 was outsourced to University of Edinburg, UK which used a cell based method.

human PPARγ receptor = biological target: T2, human PPARγ receptor (Homo sapiens, UniProt P37231); test: PPARγ transactivation luciferase reporter gene assay in HEK-293 cells; conditions: upto 10 μM
T2 sequence (P37231 238-503 limits assumed): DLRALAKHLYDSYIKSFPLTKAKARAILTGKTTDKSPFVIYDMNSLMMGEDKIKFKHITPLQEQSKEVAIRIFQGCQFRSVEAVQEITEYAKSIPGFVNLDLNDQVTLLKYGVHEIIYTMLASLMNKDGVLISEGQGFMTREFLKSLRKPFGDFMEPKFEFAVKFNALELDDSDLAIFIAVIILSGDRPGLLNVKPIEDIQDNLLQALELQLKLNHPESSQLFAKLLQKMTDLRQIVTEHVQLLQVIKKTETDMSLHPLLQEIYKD

ob/ob mice = test: Antidiabetic activity in ob/ob mice; assay type: in vivo; conditions: 5 mg/kg, 10 days
3T3-L1 cells = test: Adipogenesis screen; assay type: cell-based; conditions: 43 µM; positive = increase in adipogenesis by more than 5-fold of vehicle
Description: Adipogenesis screening was carried out essentially according to the method of Choi et al. […] Compounds that caused increase in adipogenesis by more than 5-fold of vehicle (0.1% DMSO) were considered positive and were selected for further screening.

T1 sequence (P28845 whole entry): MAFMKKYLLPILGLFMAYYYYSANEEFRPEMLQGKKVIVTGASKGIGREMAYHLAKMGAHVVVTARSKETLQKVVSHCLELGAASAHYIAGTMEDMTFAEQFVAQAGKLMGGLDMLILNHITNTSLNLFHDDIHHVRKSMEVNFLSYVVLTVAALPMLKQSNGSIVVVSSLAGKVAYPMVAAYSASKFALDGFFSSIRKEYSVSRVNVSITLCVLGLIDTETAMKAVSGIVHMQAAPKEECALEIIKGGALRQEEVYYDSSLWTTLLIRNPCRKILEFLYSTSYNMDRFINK

In the case of `O=S(=O)(Nc1cnc(Oc2cc3ccccc3cn2)c(Cl)c1)c1ccc(Cl)cc1Cl` [P1736], the “inhibitory activity towards 11<beta>-Hydroxysteroid dehydrogenase-1” value [1] is reported as 50%, the PPARγ transactivation (human PPARγ receptor) is reported as “no significant transactivation ability” and the “lowering of plasma insulin levels” value (ob/ob mice) is reported as 40%. For the same molecule, the “result in adipogenesis screen” value (3T3-L1 cells) was “positive”.
